The test system of one assay is ICR male mouse. Kind of assay: PBQ-induced writhing test (analgesic efficacy). Type of assay: in vivo. The note with it: oral administration, PBQ 0.02% intraperitoneal. As to the method: In order to test analgesic efficacy of the biaryl benzoimidazole derivative of the invention, a PBQ-induced writhing test was performed using a mouse.
A 5-week-old ICR male mouse was used as an experimental animal, and PBQ (phenyl-p-quinone, 0.02%) was used as a chemical stimulator. 20 mg of the test material per mouse body weight were suspended in 10 mL solvent of Na-CMC and saline solution, and then used. […] Between 5 to 10 minutes after administration, the writhing frequency of each subject of the experimental groups was measured, and for the measurement of the analgesic efficacy, the frequency reduction was calculated as compared to a control group by using Equation 1. Inhibitory effect (%)=[(a control group administered with excipient−a group administered with test material)/a control group administered with excipient]×100 [Equation 1]
A general note: Writhing tests count abdominal constrictions after an irritant is injected.

The target of assay [1] is T1, human vanilloid receptor VR-1 (hVR1) (Homo sapiens, UniProt Q8NER1).
T1 construct: expressed in transfected cells; host or cells: HEK293 Tet-on cells (hVR1-HEK293), expression induced with doxycycline
Kind of assay: Calcium influx test of vanilloid receptor (capsaicin-induced, Fluo-3/AM, hVR1-HEK293 cells). The assay is classed as cell-based. Particulars: for IC50: calcium influx induced by 1 μM capsaicin, read-out: Inhibitory effect IC50 (nM) on calcium influx; for inhibition at 0.2 µM: single concentration of compound 200 nM, 1 μM capsaicin, read-out: Inhibitory effect (%) on calcium influx. As to the method: In order to measure an activity of the biaryl benzoimidazole derivative of the invention as an antagonist, a calcium influx test was performed.
An hVR1-HEK293 cell line is a cell line, in which a Human Embryonic Kidney (HEK) 293 Tet-on cell is transformed with a human vanilloid-1 gene (pTRE2hyg-hVR1, 7.8 kb). The cell line can regulate a VR-1 expression, depending on the administration of a tetracycline analogue, doxycycline. At two days before the calcium influx test, the cell line was cultured in media containing doxycycline to induce the VR-1 expression, and then used. First, the hVR1-HEK293 cells were cultured in T75 flasks to have a density of about 80%, and then detached from the bottom of the flasks by using trypsin. The detached cells were centrifuged and collected. Then, the cells were suspended in media containing 1 μg/mL doxycycline, and diluted to have a concentration of 2×10^5 to 4×10^5 cells/mL. 100 μL of the suspended cells were added to each well of 96-well black plate, cultured at 37° C. and 5% CO2 cell incubator for two days, and then used in the calcium influx test.
The compound was dissolved in dimethyl sulfoxide (DMSO), and then used for the calcium influx test.
In order to measure the calcium influx […], the cells were cultured in a solution containing Fluo-3/AM, which is a calcium indicator, at 37° C. for 90 minutes, so as to be permeated by a fluorescent dye. […] 193 μL D-PBS were added to each well, and then the compound was added thereto in various concentrations. To measure an activity as an antagonist, the cells were treated with 1 μM capsaicin to stimulate the calcium influx. The inhibitory effect of the compound when calcium influx was induced by 1 μM capsaicin was measured depending on its concentration using a fluorescence spectrometer, and the obtained data were substituted into a hill equation to analyze the values.
The inhibitory effect on calcium influx was measured with a single concentration of the compounds of the invention (200 nM), and the result thereof are shown in Table 2.

Each structure is given as a SMILES string.

T1 sequence (Q8NER1 whole entry): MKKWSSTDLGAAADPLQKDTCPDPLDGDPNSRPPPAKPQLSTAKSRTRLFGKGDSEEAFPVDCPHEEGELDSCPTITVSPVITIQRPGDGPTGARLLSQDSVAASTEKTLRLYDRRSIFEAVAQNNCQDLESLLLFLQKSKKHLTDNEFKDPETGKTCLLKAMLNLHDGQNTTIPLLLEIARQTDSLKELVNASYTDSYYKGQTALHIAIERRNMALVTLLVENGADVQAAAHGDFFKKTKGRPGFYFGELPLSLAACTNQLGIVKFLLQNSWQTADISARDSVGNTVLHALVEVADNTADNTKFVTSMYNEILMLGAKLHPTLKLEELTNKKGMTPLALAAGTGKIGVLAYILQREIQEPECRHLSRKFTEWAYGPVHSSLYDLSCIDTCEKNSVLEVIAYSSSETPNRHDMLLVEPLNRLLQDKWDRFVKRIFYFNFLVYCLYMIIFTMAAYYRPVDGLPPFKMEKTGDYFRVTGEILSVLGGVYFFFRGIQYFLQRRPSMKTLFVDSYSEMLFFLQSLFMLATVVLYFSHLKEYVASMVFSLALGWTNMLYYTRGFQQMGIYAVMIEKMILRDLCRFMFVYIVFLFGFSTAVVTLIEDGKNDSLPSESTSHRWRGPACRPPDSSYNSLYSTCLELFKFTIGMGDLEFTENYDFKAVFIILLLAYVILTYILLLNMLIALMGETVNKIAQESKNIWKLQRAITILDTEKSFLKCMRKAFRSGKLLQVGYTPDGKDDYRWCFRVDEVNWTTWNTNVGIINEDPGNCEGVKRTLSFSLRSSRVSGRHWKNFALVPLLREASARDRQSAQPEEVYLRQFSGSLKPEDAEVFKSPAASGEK

Consider `CC(=O)OCc1cnc(-c2ccc(-c3nc4ccc(C(F)(F)F)cc4[nH]3)cc2)c(Cl)c1` [Compound 53, acetic acid 5-chloro-6-[4-(6-trifluoromethyl-1H-benzoimidazol-2-yl)-phenyl]-pyridin-3-yl methyl ester], for which, in the assay on ICR male mouse ((2 hour)), the “Inhibitory effect (%) on writhing frequency” value (“Inhibitory effect (%)” for short) is 34 (2 hour) %. Also, in assay [1], the IC50 turned out to be 90.4 nM and the inhibition at 0.2 µM worked out at 37.4%. Consider `COC(=O)c1cnc(-c2ccc(-c3nc4ccc(C(F)(F)F)cc4[nH]3)cc2)c(Cl)c1` [Compound 48, 5-chloro-6-[4-(6-trifluoromethyl-1H-benzoimidazol-2-yl)-phenyl]-nicotinic acid methyl ester], for which, in the assay on ICR male mouse ((1 hour)), the “Inhibitory effect (%)” value is recorded as 41 (1 hour) %. In assay [1], the IC50 amounted to 55.1 nM and the inhibition at 0.2 µM was 38.7%. Take `COC(=O)c1cnc(-c2ccc(-c3nc4ccc(C(C)(C)C)cc4[nH]3)cc2)c(Cl)c1` [Compound 49, 6-[4-(6-tert-butyl-1H-benzoimidazol-2-yl)-phenyl]-5-chloro-nicotinic acid methyl ester]: the “Inhibitory effect (%)” value in the assay on ICR male mouse ((2 hour)) is recorded as 49 (2 hour) %. For the same compound, in assay [1], the IC50 worked out at 23.1 nM and the inhibition at 0.2 µM was determined as 85%.

`COC(=O)c1cnc(-c2ccc(-c3nc4ccc(C(F)(F)F)cc4[nH]3)nc2)c(Cl)c1` [Compound 73, 3-chloro-6′-(6-trifluoromethyl-1H-benzoimidazol-2-yl)-[2,3′]bipyridinyl-5-carboxylic acid methyl ester]: in the assay on ICR male mouse ((1 hour)), the “Inhibitory effect (%)” value is listed as 39 (1 hour) %. In addition, in assay [1], the IC50 stood at 55.2 nM and the inhibition at 0.2 µM was determined as 56.1%.

Consider `COC(=O)c1cnc(-c2ccc(-c3nc4ccc(Br)cc4[nH]3)cc2)c(Cl)c1` [Compound 50, 6-[4-(6-bromo-1H-benzoimidazol-2-yl)-phenyl]-5-chloro-nicotinic acid methyl ester], for which the “Inhibitory effect (%)” value with ICR male mouse ((1 hour)) was 19 (1 hour) %. Also, in assay [1], the IC50 is 62.3 nM and the inhibition at 0.2 µM turned out to be 46.4%. In the case of `COC(=O)c1cnc(-c2ccc(-c3nc4ccc(N5CCN(C)CC5)cc4[nH]3)nc2)c(Cl)c1` [Compound 72, 3-chloro-6′-[6-(4-methyl-piperazin-1-yl)-1H-benzoimidazol-2-yl]-[2,3′]bipyridinyl-5-carboxylic acid methyl ester], in the assay with ICR male mouse ((0.5 hour)), the “Inhibitory effect (%)” value is recorded as 31 (0.5 hour) %. For the same compound, the inhibition at 0.2 µM in assay [1] is -2.9%. Regarding `OCc1cnc(-c2ccc(-c3nc4ncc(Br)cc4[nH]3)cc2)c(Cl)c1` [Compound 31, {6-[4-(6-bromo-1H-imidazo[4,5-b]pyridin-2-yl)-phenyl]-5-chloro-pyridin-3-yl}-methanol], in assay [1], the inhibition at 0.2 µM was 1.7%. Still for that read-out and setting: under `COC(=O)c1cnc(-c2ccc(-c3nc4c(Br)cc(C(F)(F)F)cc4[nH]3)nc2)c(Cl)c1` [Compound 77, 6′-(4-bromo-6-trifluoromethyl-1H-benzoimidazol-2-yl)-3-chloro-[2,3′]bipyridinyl-5-carboxylic acid methyl ester] stands 48.9%. With `OCc1cnc(-c2ccc(-c3nc4ccc(C(F)(F)F)cc4[nH]3)cc2)c(Cl)c1` [Compound 28, {5-chloro-6-[4-(6-trifluoromethyl-1H-benzoimidazol-2-yl)-phenyl]-pyridin-3-yl}-methanol], in assay [1], the IC50 is 181 nM and the inhibition at 0.2 µM came to 2.8%. For `CC(C)(C)c1ccc2nc(-c3ccc(-c4ncc(CO)cc4Cl)cc3)[nH]c2c1` [Compound 29, {6-[4-(6-tert-butyl-1H-benzoimidazol-2-yl)-phenyl]-5-chloro-pyridin-3-yl}-methanol], in the assay on ICR male mouse ((1 hour)), the “Inhibitory effect (%)” value was 59 (1 hour) %. Also, in assay [1], the IC50 amounted to 15.9 nM and the inhibition at 0.2 µM was found to be 74.8%.

Take `CC(C)(C)c1ccc2nc(-c3ccc(-c4ncc(C=O)cc4Cl)cc3)[nH]c2c1` [Compound 59, 6-[4-(6-tert-butyl-1H-benzoimidazol-2-yl)-phenyl]-5-chloro-pyridine-3-carbaldehyde]: in assay [1], the half-inhibitory concentration (IC50) was 29.5 nM and the inhibition at 0.2 µM was found to be 82.5%. As to `OCc1cnc(-c2ccc(-c3nc4c(Br)cc(Br)cc4[nH]3)nc2)c(Cl)c1` [Compound 94, [3-chloro-6′-(4,6-dibromo-1H-benzoimidazol-2-yl)-[2,3′]bipyridinyl-5-yl]-methanol], the inhibition at 0.2 µM in assay [1] was determined as 9.8%. As to `CCNC(=O)c1cnc(-c2ccc(-c3nc4ccc(Br)cc4[nH]3)cc2)c(Cl)c1` [Compound 63, 6-[4-(6-bromo-1H-benzoimidazol-2-yl)-phenyl]-5-chloro-N-ethyl-nicotinamide], in assay [1], the IC50 is 397 nM and the inhibition at 0.2 µM is 38.3%. On to `CCNC(=O)c1cnc(-c2ccc(-c3nc4ccc(C(F)(F)F)cc4[nH]3)nc2)c(Cl)c1` [Compound 97, 3-chloro-6′-(6-trifluoromethyl-1H-benzoimidazol-2-yl)-[2,3′]bipyridinyl-5-carboxylic acid ethyl amide], for which, in assay [1], the inhibition at 0.2 µM came out at 13.3%. In the case of `C=Cc1cnc(-c2ccc(-c3nc4ccc(C(F)(F)F)cc4[nH]3)cc2)c(Cl)c1` [Compound 37, 2-[4-(3-chloro-5-vinyl-pyridin-2-yl)-phenyl]-6-trifluoromethyl-1H-benzoimidazole], in assay [1], the inhibition at 0.2 µM is 5.3%. The same measure, in the same setting: under `COC(=O)c1cnc(-c2ccc(-c3nc4ncc(Br)cc4[nH]3)cc2)c(Cl)c1` [Compound 51, 6-[4-(6-bromo-1H-imidazo[4,5-b]pyridin-2-yl)-phenyl]-5-chloro-nicotinic acid methyl ester] stands 1.1%; under `C=Cc1cnc(-c2ccc(-c3nc4ccc(Br)cc4[nH]3)cc2)c(Cl)c1` [Compound 39, 6-bromo-2-[4-(3-chloro-5-vinyl-pyridin-2-yl)-phenyl]-1H-benzoimidazole], 3.1%.

For `CC(C)(C)c1ccc2nc(-c3ccc(-c4ncc(C(=O)O)cc4Cl)cc3)[nH]c2c1` [Compound 44, 6-[4-(6-tert-butyl-1H-benzoimidazol-2-yl)-phenyl]-5-chloro-nicotinic acid], in assay [1], the inhibition at 0.2 µM is -1%.

As a reminder, the IC50 is the midpoint of a concentration-inhibition curve.

These data come from patent US8940769B2, “Biaryl benzoimidazole derivatives and pharmaceutical composition comprising the same” (Daewoong Pharmaceutical Co., Ltd., priority 2006, dated 2015).
